Experimental data published in patent US8163756B2 (priority 2004, dated 2012).

Columns and labels:
B-Raf(V599E) kinase = B-Raf(V599E) kinase (Homo sapiens, UniProt P15056, V600E); assay: B-Raf(V599E) kinase assay B1 (construct 1, MEK1 substrate, coupled spectrophotometric); format: biochemical
Protocol: The test compounds were incubated with the reaction mixtureat 30° C. for 2 h. […] The reaction rate was calculated using the […] time frame. […] IC50 values were calculated from a series of percent inhibition values determined at a range of inhibitor concentrations using software routines as implemented in the GraphPad Prism software package.

[1] = biological target: phosphorylated p-38-alpha kinase (Homo sapiens, UniProt Q16539); assay: P-38 alpha kinase assay P1 (coupled spectrophotometric, 2 h pre-incubation); format: biochemical; conditions: method P1 (2 h pre-incubation); read-out: P-38 Data
phosphorylated p-38-alpha kinase, sequence (Q16539 1-360 isoform Q16539-2): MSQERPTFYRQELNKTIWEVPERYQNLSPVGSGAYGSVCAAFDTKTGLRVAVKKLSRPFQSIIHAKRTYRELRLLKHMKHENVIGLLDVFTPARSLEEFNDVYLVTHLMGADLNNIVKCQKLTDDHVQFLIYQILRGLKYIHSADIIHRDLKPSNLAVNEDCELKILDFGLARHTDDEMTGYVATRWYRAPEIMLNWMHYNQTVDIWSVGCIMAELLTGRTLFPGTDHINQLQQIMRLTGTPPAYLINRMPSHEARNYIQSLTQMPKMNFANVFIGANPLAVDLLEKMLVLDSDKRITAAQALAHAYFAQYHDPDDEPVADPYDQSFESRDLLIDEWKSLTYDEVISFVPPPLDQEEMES

B-Raf(V599E) kinase, sequence (P15056 with tags, fused parts or gaps V600E): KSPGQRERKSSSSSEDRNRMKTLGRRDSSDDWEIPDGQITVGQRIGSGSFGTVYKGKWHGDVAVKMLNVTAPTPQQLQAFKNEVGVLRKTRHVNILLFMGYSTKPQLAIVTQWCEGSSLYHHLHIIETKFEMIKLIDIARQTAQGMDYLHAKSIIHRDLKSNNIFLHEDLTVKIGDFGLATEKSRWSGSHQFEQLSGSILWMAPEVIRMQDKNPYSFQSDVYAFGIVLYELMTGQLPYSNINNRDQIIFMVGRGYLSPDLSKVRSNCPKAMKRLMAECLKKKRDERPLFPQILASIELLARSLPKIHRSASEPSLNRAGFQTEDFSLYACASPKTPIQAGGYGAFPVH

Row | Structure (SMILES) | IC50 (B-Raf(V599E) kinase) [nM] | IC50 [1] [nM]
1 | CC(C)(C)c1cc(NC(=O)NC2CCCCC2)n(-c2cc(CC(N)=O)c3ccccc3c2)n1 [Example 91, 1-(1-(4-(2-amino-2-oxoethyl)naphthalen-2-yl)-3-t-butyl-1H-pyrazol-5-yl)-3-cyclohexylurea] | 20 | 350
2 | CC(C)(C)c1ncc(NC(=O)Nc2cccc(Cl)c2Cl)c(-c2ccccc2)n1 [Example 279, 1-(2-t-butyl-4-phenylpyrimidin-5-yl)-3-(2,3-dichlorophenyl)urea] | 697 | 1050
3 | CC(C)(C)c1ncc(NC(=O)Nc2cccc(Oc3cccnc3)c2)c(-c2ccccc2)n1 [Example 281, 1-(2-t-butyl-4-phenylpyrimidin-5-yl)-3-(3-(pyridin-3-yloxy)phenyl)urea] | 369 | 5800
4 | CC(C)(C)c1cc(NC(=O)Nc2ccccc2)n(-c2cc(CC(=O)O)c3ccccc3c2)n1 [Example 301, {3-[3-t-butyl-5-(3-phenylureido)pyrazol-1-yl]naphthalen-1-yl}acetic acid] | 10 | 160
5 | CC(C)(C)c1cc(NC(=O)Nc2ccc(F)c(F)c2F)n(-c2cccc(CC(=O)O)c2)n1 [Example 356, 2-(3-(3-t-butyl-5-(3-(2,3,4-trifluorophenyl)-ureido)-1H-pyrazol-1-yl)phenyl)acetic acid] | 14 | 72
6 | COC[C@@H]1CCCN1C(=O)Cc1cccc(-n2nc(C(C)(C)C)cc2NC(=O)Nc2cccc(Cl)c2Cl)c1 [Example 409, 1-(3-t-butyl-1-(3-(2-((S)-2-(methoxymethyl)pyrrolidin-1-yl)-2-oxoethyl)phenyl)-1H-pyrazol-5-yl)-3-(2,3-dichlorophenyl)urea] |  | 150
7 | NC(=O)Cc1cccc(-n2nc(-c3nccs3)cc2NC(=O)Nc2cccc(Cl)c2Cl)c1 [Example 410, 1-(1-(3-(2-amino-2-oxoethyl)phenyl)-3-(thiazol-2-yl)-1H-pyrazol-5-yl)-3-(2,3-dichlorophenyl)urea] |  | 88
8 | NC(=O)Cc1cccc(-n2nc(-c3ccccc3F)cc2NC(=O)N[C@H]2CCc3ccccc32)c1 [Example 411, 1-(1-(3-(2-amino-2-oxoethyl)phenyl)-3-(2-fluorophenyl)-1H-pyrazol-5-yl)-3-((S)-2,3-dihydro-1H-inden-1-yl)urea] |  | 37
9 | O=C(Cc1cccc(-n2nc(-c3ccccc3F)cc2NC(=O)N[C@H]2CCc3ccccc32)c1)NCCO [Example 412, 1-((S)-2,3-dihydro-1H-inden-1-yl)-3-(3-(2-fluorophenyl)-1-(3-(2-(2-hydroxyethylamino)-2-oxoethyl)phenyl)-1H-pyrazol-5-yl)urea] |  | 41
10 | O=C(Cc1cccc(-n2nc(-c3ccccc3F)cc2NC(=O)N[C@H]2CCc3ccccc32)c1)NCC(O)CO (stereo partly drawn) [Example 413, 1-((S)-2,3-dihydro-1H-inden-1-yl)-3-(1-(3-(2-(2,3-dihydroxypropylamino)-2-oxoethyl)phenyl)-3-(2-fluorophenyl)-1H-pyrazol-5-yl)urea] |  | 28
11 | NC(=O)Cc1cccc(-n2nc(-c3cccs3)cc2NC(=O)N[C@H]2CCc3ccccc32)c1 [Example 415, 1-(1-(3-(2-amino-2-oxoethyl)phenyl)-3-(thiophen-2-yl)-1H-pyrazol-5-yl)-3-((S)-2,3-dihydro-1H-inden-1-yl)urea] |  | 17
12 | O=C(Cc1cccc(-n2nc(-c3cccs3)cc2NC(=O)N[C@H]2CCc3ccccc32)c1)NCCO [Example 416, 1-((S)-2,3-dihydro-1H-inden-1-yl)-3-(1-(3-(2-(2-hydroxyethylamino)-2-oxoethyl)phenyl)-3-(thiophen-2-yl)-1H-pyrazol-5-yl)urea] |  | 32
13 | O=C(Cc1cccc(-n2nc(-c3cccs3)cc2NC(=O)N[C@H]2CCc3ccccc32)c1)NCC(O)CO (stereo partly drawn) [Example 417, 1-((S)-2,3-dihydro-1H-inden-1-yl)-3-(1-(3-(2-(2,3-dihydroxypropylamino)-2-oxoethyl)phenyl)-3-(thiophen-2-yl)-1H-pyrazol-5-yl)urea] |  | 29
14 | CN(C)[C@H]1CCN(C(=O)Cc2cccc(-n3nc(C4CCCC4)cc3NC(=O)Nc3cccc(Cl)c3Cl)c2)C1 [Example 419, 1-(3-cyclopentyl-1-(3-(2-((S)-3-(dimethylamino)pyrrolidin-1-yl)-2-oxoethyl)phenyl)-1H-pyrazol-5-yl)-3-(2,3-dichlorophenyl)urea] |  | 38
15 | NC(=O)Cc1cccc(-n2nc(-c3ccccc3F)cc2NC(=O)Nc2ccc(F)c(F)c2F)c1 [Example 422, 1-(1-(3-(2-Amino-2-oxoethyl)phenyl)-3-(2-fluorophenyl)-1H-pyrazol-5-yl)-3-(2,3,4-trifluorophemyl)urea] |  | 98
16 | NC(=O)Cc1cccc(-n2nc(-c3ccccc3F)cc2NC(=O)Nc2cccc3ccccc23)c1 [Example 423, 1-(1-(3-(2-amino-2-oxoethyl)phenyl)-3-(2-fluorophenyl)-1H-pyrazol-5-yl)-3-(naphthalen-1-yl)urea] |  | 21

Row | Structure (SMILES) | IC50 (B-Raf(V599E) kinase) [nM] | IC50 [1] [nM]
17 | O=C(Cc1cccc(-n2nc(-c3ccccc3F)cc2NC(=O)Nc2ccc(F)c(F)c2F)c1)NCC(O)CO (stereo not drawn) [Example 424, 1-(1-(3-(2-(2,3-Dihydroxypropylamino)-2-oxoethyl)phenyl)-3-(2-fluorophenyl)-1H-pyrazol-5-yl)-3-(2,3,4-trifluorophenyl)urea] |  | 47
18 | O=C(Cc1cccc(-n2nc(-c3ccccc3F)cc2NC(=O)Nc2cccc3ccccc23)c1)NCC(O)CO (stereo not drawn) [Example 425, 1-(1-(3-(2-(2,3-dihydroxypropylamino)-2-oxoethyl)phenyl)-3-(2-fluorophenyl)-1H-pyrazol-5-yl)-3-(naphthalen-1-yl)urea] |  | 29
19 | O=C(Cc1cccc(-n2nc(-c3ccccc3F)cc2NC(=O)Nc2cccc3ccccc23)c1)NCCO [Example 426, 1-(3-(2-fluorophenyl)-1-(3-(2-(2-hydroxyethylamino)-2-oxoethyl)phenyl)-1H-pyrazol-5-yl)-3-(naphthalen-1-yl)urea] |  | 38
20 | O=C(Cc1cccc(-n2nc(-c3cccs3)cc2NC(=O)Nc2cccc3ccccc23)c1)NCCO [Example 428, 1-(1-(3-(2-(2-hydroxyethylamino)-2-oxoethyl)phenyl)-3-(thiophen-2-yl)-1H-pyrazol-5-yl)-3-(naphthalen-1-yl)urea] |  | 12
21 | CC(C)(C)c1cc(NC(=O)Nc2cccc(Cl)c2Cl)n(-c2cccc(CC(=O)NCC(O)CO)c2)n1 (stereo not drawn) [Example 440, 1-(3-t-butyl-1-(3-(2-(2,3-dihydroxypropylamino)-2-oxoethyl)phenyl)-1H-pyrazol-5-yl)-3-(2,3-dichlorophenyl)urea] | 4.1 | 7
22 | CO[C@@H]1CCN(C(=O)Cc2cccc(-n3nc(C(C)(C)C)cc3NC(=O)Nc3cccc(Cl)c3Cl)c2)C1 [Example 444, 1-(3-t-butyl-1-(3-(2-((R)-3-methoxypyrrolidin-1-yl)-2-oxoethyl)phenyl)-1H-pyrazol-5-yl)-3-(2,3-dichlorophenyl)urea] | 20 | 63
23 | O=C(Cc1cccc(-n2nc(-c3ccc(F)cc3)cc2NC(=O)Nc2cccc(Cl)c2Cl)c1)NCCO [Example 455, 1-(2,3-dichlorophenyl)-3-(3-(4-fluorophenyl)-1-(3-(2-(2-hydroxyethylamino)-2-oxoethyl)phenyl)-1H-pyrazol-5-yl)urea] |  | 82
24 | CC(C)(C)c1cc(NC(=O)Nc2ccc(F)c(F)c2F)n(-c2ccc(CC(N)=O)cc2)n1 [Example 466, 1-(1-(4-(2-amino-2-oxoethyl)phenyl)-3-t-butyl-1H-pyrazol-5-yl)-3-(2,3,4-trifluorophenyl)urea] |  | 22
25 | NC(=O)Cc1ccc(-n2nc(-c3cccc(F)c3)cc2NC(=O)Nc2cccc(Cl)c2Cl)cc1 [Example 480, 1-(1-(4-(2-amino-2-oxoethyl)phenyl)-3-(3-fluorophenyl)-1H-pyrazol-5-yl)-3-(2,3-dichlorophenyl)urea] |  | 73
26 | O=C(Cc1ccc(-n2nc(-c3cccc(F)c3)cc2NC(=O)Nc2cccc(Cl)c2Cl)cc1)NCC(O)CO (stereo not drawn) [Example 481, 1-(2,3-dichlorophenyl)-3-(1-(4-(2-(2,3-dihydroxypropylamino)-2-oxoethyl)phenyl)-3-(3-fluorophenyl)-1H-pyrazol-5-yl)urea] |  | 33
27 | COC[C@H]1CCCN1C(=O)Cc1ccc(-n2nc(C(C)(C)C)cc2NC(=O)Nc2cccc(Cl)c2Cl)cc1 [Example 484, (R)-1-(3-t-butyl-1-(4-(2-(2-(methoxymethyl)pyrrolidin-1-yl)-2-oxoethyl)phenyl)-1H-pyrazol-5-yl)-3-(2,3-dichlorophenyl)urea] |  | 13
28 | COC[C@@H]1CCCN1C(=O)Cc1ccc(-n2nc(C(C)(C)C)cc2NC(=O)Nc2cccc(Cl)c2Cl)cc1 [Example 485, (S)-1-(3-t-butyl-1-(4-(2-(2-(methoxymethyl)pyrrolidin-1-yl)-2-oxoethyl)phenyl)-1H-pyrazol-5-yl)-3-(2,3-dichlorophenyl)urea] |  | 12
29 | NC(=O)Cc1ccc(-n2nc(-c3cccs3)cc2NC(=O)N[C@H]2CCc3ccccc32)cc1 [Example 489, 1-(1-(4-(2-amino-2-oxoethyl)phenyl)-3-(thiophen-2-yl)-1H-pyrazol-5-yl)-3-((S)-2,3-dihydro-1H-inden-1-yl)urea] |  | 35
30 | O=C(Cc1ccc(-n2nc(-c3cccs3)cc2NC(=O)N[C@H]2CCc3ccccc32)cc1)NCCO [Example 490, 1-((S)-2,3-dihydro-1H-inden-1-yl)-3-(1-(4-(2-(2-hydroxyethylamino)-2-oxoethyl)phenyl)-3-(thiophen-2-yl)-1H-pyrazol-5-yl)urea] |  | 53
31 | CC(C)(C)c1cc(NC(=O)Nc2cccc(Cl)c2Cl)n(-c2ccc(CC(=O)NCC(O)CO)cc2)n1 (stereo not drawn) [Example 493] | 11 | 4
